Experimental data published in US10626112B2, “Heterocyclic sulfonamide derivative and medicine comprising same” (EA PHARMA CO., LTD., priority 2014, dated 2020).

Biological target: human TRPA1 (Homo sapiens (Human), UniProt O75762)
Test: Measurement of TRPA1 antagonist activity (1): intracellular calcium increase
Assay type: cell-based
Conditions: 293T cells transfected with human TRPA1 expression plasmid; allylisothiocyanate 20 μM stimulation; intracellular calcium fluorescence; read-out: hTRPA1 IC50
Text: Measurement of TRPA1 Antagonist Activity (1)
Human TRPA1 Expression Plasmid
As cDNA encoding human TRPA1 (GenBank accession No. […]), a commercially available product was purchased (manufactured by Kazusa DNA Research Institute, clone No.: pFN21AB7348, item No.: FHC07217). Using this as a template, full-length human TRPA1 gene was amplified using the primer sequences shown below, by reaction using DNA polymerase (manufactured by Stratagene, trade name: PfuUltra High-Fidelity DNA Polymerase).
A recognition site (underlined) of restriction enzyme HindIII was added to the 5′ side, and XbaI site (underlined) was added to the 3′ side, and GTT of the template sequence was changed to termination codon TAG (bold). The obtained double stranded DNA was enzyme-digested with HindIII and XbaI, and introduced into the multicloning site of expression plasmid pcDNA3.1/zeo(+) (manufactured by Invitrogen) to construct a human TRPA1 expression plasmid.
Human embryonic kidney-derived 293T cells were cultured in Dulbecco's Modified Eagle Medium containing 10% fetal bovine serum, 10 unit penicillin, and 10 μg streptomycin, plated on a petri dish having a diameter of 10 cm at 3×10^6 cells, and cultured for 24 hr in a CO2 incubator. A reduced serum medium (manufactured by Invitrogen, trade name: OPTI-MEM, 600 μL), a gene transfer reagent (manufactured by Mirus Bio, trade name: Mirus TransIT-293, 18 μL), and human TRPA1 expression plasmid (6 μg) were mixed, the total amount of the mixture was added to the cells on the petri dish to allow for gene transfer. The cells were recovered about for 8 hr later, plated on a poly-D-lysine coated 384 well black/clear bottom plate at 12,000 cells/well, and cultured overnight.
Measurement of Intracellular Calcium Increase
The 384 well plate was recovered, and the medium was removed. A calcium-bonded fluorescent indicator (manufactured by Molecular Device, trade name: Calcium4 Assay Kit, 38 μL) dissolved in assay buffer (1×HBSS, 20 mM HEPES, pH 7.2) was added, and the cells were stained in a CO2 incubator for 1 hr. The cells were taken out at room temperature, stood for not less than 15 min, a test substance (10 μL) was added by a platereader FDSS7000 (Hamamatsu Photonics K.K.) equipped with a 384ch dispenser. After 10 min, allylisothiocyanate (12 μL) was further added at a final concentration of 20 μM, and changes in the relative fluorescence intensity after addition of allylisothiocyanate were measured for 5 min.
Test Substance Preparation
The test substance was dissolved in dimethyl sulfoxide and serially diluted with an assay buffer containing 0.1% bovine serum albumin (1×HBSS, 20 mM HEPES, pH 7.2) to a 4.8-fold concentration of the evaluation concentration. Allylisothiocyanate, which is a known TRPA1 activator, was dissolved in dimethyl sulfoxide to 100 mM, and further diluted 5-fold (100 μM) of the final concentration, like the test substance.
Calculation of Antagonist Activity
Under the test substance-free conditions, the maximum variation range of the fluorescence intensity before and after allylisothiocyanate stimulation was defined to be 100% activity rate, and the variation range before and after buffer stimulation was defined as 0% activity rate. The activity rate on addition of the test substance was determined, and the numerical value obtained by subtracting the activity rate from 100 was defined to be an inhibitory rate. IC50, which is the concentration of the test substance necessary for reaching the 50% inhibitory rate, was calculated from the sigmoid approximate curve by a spreadsheet software Excel-Fit.

Sequence of human TRPA1 (O75762 whole entry): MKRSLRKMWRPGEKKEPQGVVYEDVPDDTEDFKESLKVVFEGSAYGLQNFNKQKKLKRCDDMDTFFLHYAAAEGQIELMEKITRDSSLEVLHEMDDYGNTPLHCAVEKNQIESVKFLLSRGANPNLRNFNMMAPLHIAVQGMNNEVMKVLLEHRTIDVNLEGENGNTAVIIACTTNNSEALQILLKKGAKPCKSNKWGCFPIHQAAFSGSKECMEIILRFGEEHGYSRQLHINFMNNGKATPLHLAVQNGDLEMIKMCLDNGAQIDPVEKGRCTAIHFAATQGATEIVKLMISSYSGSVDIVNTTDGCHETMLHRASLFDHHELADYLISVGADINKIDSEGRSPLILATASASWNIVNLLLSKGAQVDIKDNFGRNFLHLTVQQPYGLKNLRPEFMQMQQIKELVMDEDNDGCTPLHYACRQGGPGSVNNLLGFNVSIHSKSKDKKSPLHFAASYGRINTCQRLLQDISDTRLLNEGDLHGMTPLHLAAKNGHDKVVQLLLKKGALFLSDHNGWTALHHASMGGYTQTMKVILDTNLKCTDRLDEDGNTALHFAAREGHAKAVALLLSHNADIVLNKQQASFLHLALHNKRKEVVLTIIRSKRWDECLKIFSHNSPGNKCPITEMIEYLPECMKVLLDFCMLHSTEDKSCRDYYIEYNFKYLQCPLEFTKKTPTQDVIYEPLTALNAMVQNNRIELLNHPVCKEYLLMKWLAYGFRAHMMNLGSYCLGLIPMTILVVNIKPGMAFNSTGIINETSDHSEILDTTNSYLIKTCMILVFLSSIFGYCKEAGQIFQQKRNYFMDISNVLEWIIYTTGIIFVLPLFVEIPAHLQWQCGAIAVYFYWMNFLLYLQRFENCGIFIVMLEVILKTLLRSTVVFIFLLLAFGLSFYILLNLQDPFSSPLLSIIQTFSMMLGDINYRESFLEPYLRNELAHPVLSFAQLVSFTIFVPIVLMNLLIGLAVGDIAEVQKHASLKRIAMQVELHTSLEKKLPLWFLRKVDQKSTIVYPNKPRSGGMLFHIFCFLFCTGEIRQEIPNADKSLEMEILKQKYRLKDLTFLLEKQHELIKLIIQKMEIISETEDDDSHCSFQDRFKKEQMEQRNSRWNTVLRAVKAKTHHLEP

Question: For `CN(C)[C@@H]1C[C@@H](C(=O)NCc2ccnc(-c3ccc(C(F)(F)F)cc3O)c2)N(S(=O)(=O)c2cc3ccccc3o2)C1` [Example 334, (2S,4R)-1-(benzofuran-2-ylsulfonyl)-4-(dimethylamino)-N-[[2-[2-hydroxy-4-(trifluoromethyl)phenyl]-4-pyridyl]methyl]pyrrolidine-2-carboxamide], which IC50 is on record?
Answer: The IC50 was 630 nM.

Question: With `CNc1ccccc1-c1cc(CNC(=O)[C@@H]2CCCN2S(=O)(=O)c2cc3ccccc3o2)ccn1` [Example 292, (2S)-1-(benzofuran-2-ylsulfonyl)-N-[[2-[2-(methylamino)phenyl]-4-pyridyl]methyl]pyrrolidine-2-carboxamide] as the molecule, how does the IC50 read?
Answer: Its IC50 is 580 nM.

Question: For `O=C(NCc1cccc(OCc2cccc(CN3CCOCC3)c2)c1)[C@@H]1CCCN1S(=O)(=O)c1cc2cc(F)ccc2o1` [Example 27, (2S)-1-(5-fluorobenzofuran-2-yl)sulfonyl-N-[[3-[[3-(morpholinomethyl)phenyl]-methoxy]phenyl]methyl]-pyrrolidine-2-carboxamide], which IC50 is on record?
Answer: Its IC50 is 8.2 nM.

Question: Which IC50 does the source give for `C[C@H](NS(=O)(=O)c1cc2cc(F)ccc2o1)C(=O)NCc1ccnc(-c2cnc(C(F)(F)F)nc2)c1` [Example 238, (2S)-2-[(5-fluorobenzofuran-2-yl)sulfonylamino]-N-[[2-[2-(trifluoromethyl)pyrimidin-5-yl]-4-pyridyl]methyl]propanamide] here?
Answer: The IC50 was 42 nM.

Question: For `O=C(NC1(c2ccnc(-c3ccc(C(F)(F)F)nc3)c2)CC1)[C@@H]1CCCN1S(=O)(=O)c1cc2ccccc2o1` [Example 218, (2S)-1-(benzofuran-2-ylsulfonyl)-N-[1-[2-[6-(trifluoromethyl)-3-pyridyl]-4-pyridyl]cyclopropyl]-pyrrolidine-2-carboxamide], which IC50 is on record?
Answer: The IC50 was 96 nM.

Question: Which IC50 does the source give for `O=C(NCc1ccnc(-c2cc(C(F)(F)F)n[nH]2)c1)[C@@H]1CCCN1S(=O)(=O)c1cc2ccccc2o1` [Example 294, (2S)-1-(benzofuran-2-ylsulfonyl)-N-[[2-[3-(trifluoromethyl)-1H-pyrazol-5-yl]-4-pyridyl]methyl]pyrrolidine-2-carboxamide] here?
Answer: The IC50 was 170 nM.

Question: With `O=C(NCc1ccnc(-c2cnc(C(F)(F)F)nc2)c1)[C@@H]1CCCN1S(=O)(=O)c1cc2ccccc2o1` [Example 199, (2S)-1-(benzofuran-2-ylsulfonyl)-N-[[2-[2-(trifluoromethyl)pyrimidin-5-yl]-4-pyridyl]methyl]pyrrolidine-2-carboxamide] as the molecule, how does the IC50 read?
Answer: Its IC50 is 5 nM.

Question: Which IC50 does the source give for `O=C(NCc1ccnc(-c2ccc(C(F)(F)F)cc2)c1)[C@@H]1CC(F)(F)CN1S(=O)(=O)c1cc2cc(F)ccc2o1` [Example 99, (2S)-4,4-difluoro-1-(5-fluorobenzofuran-2-yl)sulfonyl-N-[[2-[4-(trifluoromethyl)phenyl]-4-pyridyl]methyl]pyrrolidine-2-carboxamide] here?
Answer: The IC50 was 13 nM.

Question: How did the IC50 turn out when `O=C(NCc1cc(C2=CCCCC2)ccn1)[C@@H]1CCCN1S(=O)(=O)c1cc2ccccc2o1` [Example 283, (2S)-1-(benzofuran-2-ylsulfonyl)-N-[[4-(cyclohexen-1-yl)-2-pyridyl]methyl]pyrrolidine-2-carboxamide] was run?
Answer: Its IC50 is 250 nM.

Question: Which IC50 does the source give for `O=C(NCc1ccccc1-c1ccccc1)[C@@H]1CCCN1S(=O)(=O)c1cc2cc(F)ccc2o1` [Example 78, (2S)-1-(5-fluorobenzofuran-2-yl)sulfonyl-N-[(2-phenylphenyl)methyl]pyrrolidine-2-carboxamide] here?
Answer: Its IC50 is 130 nM.

Question: For `O=C(NCc1cc(-c2ccc(C(F)(F)F)cn2)ccn1)[C@@H]1[C@@H](O)CCN1S(=O)(=O)c1cc2ccccc2o1` [Example 227, (2S,3S)-1-(benzofuran-2-ylsulfonyl)-3-hydroxy-N-[[4-[5-(trifluoromethyl)-2-pyridyl]-2-pyridyl]methyl]pyrrolidine-2-carboxamide], which IC50 is on record?
Answer: Its IC50 is 42 nM.

Question: For `O=C(NCc1cccc(Cc2ccccc2)c1)[C@@H]1CCCN1S(=O)(=O)c1cc2cc(F)ccc2o1` [Example 319, (2S)—N-[(3-benzylphenyl)methyl]-1-(5-fluorobenzofuran-2-yl)sulfonyl-pyrrolidine-2-carboxamide], which IC50 is on record?
Answer: The IC50 was 27 nM.

Question: `O=C(NCc1cc(-c2ccc(C(F)(F)F)cn2)ncn1)[C@@H]1CCCN1S(=O)(=O)c1cc2ccccc2o1` [Example 206, (2S)-1-(benzofuran-2-ylsulfonyl)-N-[[6-[5-(trifluoromethyl)-2-pyridyl]pyrimidin-4-yl]methyl]pyrrolidine-2-carboxamide] was tested. Which IC50 did it give?
Answer: Its IC50 is 12 nM.

Question: How did the IC50 turn out when `C[C@H](NS(=O)(=O)c1cc2cc(F)ccc2o1)C(=O)NCc1cncc(-c2ccc(C(F)(F)F)nc2)c1` [Example 245, (2S)-2-[(5-fluorobenzofuran-2-yl)sulfonylamino]-N-[[5-[6-(trifluoromethyl)-3-pyridyl]-3-pyridyl]methyl]propanamide] was run?
Answer: Its IC50 is 120 nM.

Question: For `C[C@H](NS(=O)(=O)c1cc2cc(F)ccc2o1)C(=O)NCc1cncc(-c2ccc(C(F)(F)F)cn2)c1` [Example 246, (2S)-2-[(5-fluorobenzofuran-2-yl)sulfonylamino]-N-[[5-[5-(trifluoromethyl)-2-pyridyl]-3-pyridyl]methyl]propanamide], which IC50 is on record?
Answer: The IC50 was 110 nM.

Question: How did the IC50 turn out when `O=C(NCc1cc(F)cc(OCc2ccncc2)c1)[C@@H]1CCCN1S(=O)(=O)c1cc2cc(F)ccc2o1` [Example 35, (2S)-1-(5-fluorobenzofuran-2-yl)sulfonyl-N-[[3-fluoro-5-(4-pyridylmethoxy)-phenyl]methyl]-pyrrolidine-2-carboxamide] was run?
Answer: The IC50 was 8 nM.

Question: How did the IC50 turn out when `CN(C(=O)OC(C)(C)C)c1ccc(-c2ccc(F)c(CNC(=O)C3CCCN3S(=O)(=O)c3cc4ccccc4o3)c2)cn1` [Example 175, tert-butyl N-[5-[3-[[[(2S)-1-benzofuran-2-ylsulfonyl)pyrrolidine-2-carbonyl]amino]methyl]-4-fluoro-phenyl]-2-pyridyl]-N-methylcarbamate] was run?
Answer: Its IC50 is 13 nM.

Question: With `O=C(NCc1cccc(-c2ccc(C(F)(F)F)cc2O)n1)[C@@H]1CCCN1S(=O)(=O)c1cc2cc(F)ccc2o1` [Example 147, (2S)-1-(5-fluorobenzofuran-2-yl)sulfonyl-N-[[6-[2-hydroxy-4-(trifluoromethyl)phenyl]-2-pyridyl]methyl]pyrrolidine-2-carboxamide] as the molecule, how does the IC50 read?
Answer: The IC50 was 180 nM.

Question: With `O=C(NCc1ccc(O)c(-c2ncc(C(F)(F)F)cn2)c1)[C@@H]1CCCN1S(=O)(=O)c1cc2ccccc2o1` [Example 213, (2S)-1-(benzofuran-2-ylsulfonyl)-N-[[4-hydroxy-3-[5-(trifluoromethyl)-pyrimidin-2-yl]phenyl]-methyl]pyrrolidine-2-carboxamide] as the molecule, how does the IC50 read?
Answer: Its IC50 is 47 nM.

Question: How did the IC50 turn out when `O=C(NCc1ccnc(-c2ccc(C(F)(F)F)cc2)c1)[C@@H]1[C@@H](O)CCN1S(=O)(=O)c1cc2cc(F)ccc2o1` [Example 95, (2S,3S)-1-(5-fluorobenzofuran-2-yl)sulfonyl-3-hydroxy-N-[[2-[4-(trifluoromethyl)phenyl]-4-pyridyl]methyl]pyrrolidine-2-carboxamide] was run?
Answer: The IC50 was 5.4 nM.

Question: For `O=C(NCc1cccc(OC(F)(F)F)c1)[C@@H]1CCCN1S(=O)(=O)c1cc2cc(F)ccc2o1` [Example 65, (2S)-1-(5-fluorobenzofuran-2-yl)sulfonyl-N-[[3-(trifluoromethoxy)phenyl]methyl]-pyrrolidine-2-carboxamide], which IC50 is on record?
Answer: Its IC50 is 15 nM.

Question: `CN(C)c1ccc(COc2cccc(CNC(=O)[C@@H]3CCCN3S(=O)(=O)c3cc4cc(F)ccc4o3)c2)cn1` [Example 21, (2S)-N-[[3-[[6-(dimethylamino)-3-pyridyl]methoxy]phenyl]-methyl]-1-(5-fluorobenzofuran-2-yl)sulfonyl-pyrrolidine-2-carboxamide] was tested. Which IC50 did it give?
Answer: The IC50 was 34 nM.

Question: Which IC50 does the source give for `N#Cc1cccc(-c2cc(CNC(=O)[C@@H]3CCCN3S(=O)(=O)c3cc4ccccc4o3)ccn2)c1` [Example 118, (2S)-1-(benzofuran-2-ylsulfonyl)-N-[[2-(3-cyanophenyl)-4-pyridyl]methyl]pyrrolidine-2-carboxamide] here?
Answer: The IC50 was 260 nM.
